Test results as given in patent publication US6677298B2, “Regulators of PPARδ (β) and their use in the treatment of obesity and insulin resistance” (Bristol-Myers Squibb Company, priority 2000, dated 2004).
Entries after “also recorded” stand apart in the source; their conditions may differ.

What was measured:
Gal4/PPARδ(β) = target: T1, Gal4/PPARδ(β) (Homo sapiens, UniProt Q03181); test: Cell based transactivation assay, δ agonist mode (Gal4 RE driven SEAP reporter in CHO cells); conditions: CHO cells stably transfected with Gal4/PPARδ(β); 3.16-31600 nM; FIG. 4
T1 construct: human PPARδ(β) LBD (amino acid 139-441); {Schmidt et al; expressed in transfected cells; host or cells: CHO cells, stably transfected

PPARδ(β) LBD = target: T2, PPARδ(β) LBD (Homo sapiens, UniProt Q03181); test: In vitro PPARδ(β) LBD ligand binding assay (SPA, 3H-labeled ligand displacement); conditions: 50 nM 3H-labeled ligand, His-tagged LBD bacterial lysate, SPA beads, 1 hour room temperature; read-out: IC50, half maximal inhibition/displacement of 3H labeled PPARδ(β) ligand binding to PPARδ(β) LBD
T2 construct: His-tagged PPARδ(β) LBD (amino acid 139-441, Schmidt et al); made in house; host or cells: E. coli (crude lysate supernatant used)
T2 sequence (Q03181 139-441): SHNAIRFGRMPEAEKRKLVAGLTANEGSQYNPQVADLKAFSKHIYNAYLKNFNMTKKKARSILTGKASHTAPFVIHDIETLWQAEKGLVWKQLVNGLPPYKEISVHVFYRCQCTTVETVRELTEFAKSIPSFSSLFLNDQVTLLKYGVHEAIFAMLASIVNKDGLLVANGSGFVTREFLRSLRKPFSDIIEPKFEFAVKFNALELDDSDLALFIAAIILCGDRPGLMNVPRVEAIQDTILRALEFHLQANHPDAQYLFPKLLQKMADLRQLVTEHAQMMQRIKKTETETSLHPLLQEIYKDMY
Description: FIG. 3: Illustrates results from a PPARδ(β) ligand binding assay.
This invention also provides methods for screening and identification of compounds that bind to and/or regulate PPARδ(β). The PPARδ(β) ligand binding domain (LBD) from a mammalian species including human and/or a non-mammalian species such as frog (Xenopus), is used for screening for compounds that bind to the LBD (Schmidt et al, Mol. Endocrinology, 6:1634-1641, 1992; Evans et al., Sequence XR-4 in U.S. Pat. No. 5,571,696, 1996; Berger et al. J. Biol. Chem., 274:6718-6725, 1999). […]
A single E.coli colony containing His-tagged PPARδ(β) LBD (amino acid 139-441, Schmidt et al., Mol. Endocrinology, 6:1634-1641, 1992) expressing plasmid DNA is mixed with 3 ml Luria broth (LB) supplemented with 100 μg/ml antibiotic ampicilin and grown at 37° C. […] The plates are then read on Packard top-count beta-scintillation counter (1 minute/well). […] In this binding assay any test compound may replace L-165041 and the binding affinity for PPARδ(β) is easily determined.

T1 sequence (P04386 1-144 partner limits assumed, one chain of several): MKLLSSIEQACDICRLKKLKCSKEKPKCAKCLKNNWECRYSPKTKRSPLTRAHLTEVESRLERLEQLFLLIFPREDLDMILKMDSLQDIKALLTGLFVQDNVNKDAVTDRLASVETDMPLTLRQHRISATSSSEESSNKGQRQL

Compound: CCCc1c(OCCCOc2ccc(OCC(=O)O)cc2)ccc(C(C)=O)c1O [Compound L-165041]
- Induction of SEAP reporter gene activity (Gal4/PPARδ(β)): dose dependent activation of reporter gene SEAP function; also recorded: dose dependently induced reporter gene activity
- IC50 (PPARδ(β) LBD): 52 nM
